One data set deals with VMAT2 (Rattus norvegicus (Rat), UniProt Q01827). Nature of the data set: [3H]Dopamine ([3H]DA) uptake assay, vesicular preparation. It is filed as biochemical. Conditions: [3H]DA uptake, rat; read-out: VMAT2 (rat) Inhibition: Mean Ki ± Standard Deviation.
The target in the next data set is hERG channel (Homo sapiens (Human), UniProt Q12809). Nature of the data set: [3H]Dofetilide binding assay, HEK-293 cell membrane preparation. Conditions: [3H]dofetilide, HEK-293 cell membranes; read-out: hERG Binding: Mean Ki ± Standard Deviation. How it is done: [^3H]Dofetilide binding assays were conducted using commercially available HEK-293 cell membranes which stably express the hERG channel. Membranes were suspended in assay buffer (50 mM Tris, 10 mM KCl, 1 mM MgCl2, pH 7.4) prior to the experiment. […] Aliquots of the HEK-293 cell membrane suspension which contained 5 μg membrane protein were added to tubes containing assay buffer, 5 nM [^3H]dofetilide and a range of concentrations of analog (10 nM-100 μM). Nonspecific binding was determined in the presence of amitriptyline (1 mM). Samples were incubated for 1 hr. at 24° C., followed by rapid filtration. […] The affinity for the [^3H]dofetilide binding site on the hERG channel expressed in the HEK-293 cellular membrane was determined from the analog concentration response curves.
On the technique in general: The hERG channel carries a current that helps repolarise heart muscle cells.

A short description of data set [1]: Microsomal stability assay, rat liver microsomes. Conditions: for CLint scaled at 0.08 µM / half-life at 0.08 µM: female, Sprague-Dawley, rat, liver microsomes; for CLint scaled at 0.08 µM: pH 7.4, Microsomal stability assays: Clearance; for half-life at 0.08 µM: pH 7.4, Microsomal stability assays: Half-life. In general terms: Liver microsomes are vesicles of endoplasmic reticulum, rich in cytochrome P450 enzymes.
Description: Each plate holds triplicate samples of two controls (0.4 mM) and up to 14 compounds (0.08 mM) in rat and human liver microsomes. Aliquots of each well of the plate (175 μl of each well) were transferred from the master plate into 5 assay plates. For 0-hr time point, pre-cooled (4° C.) internal standard (437.5 μL, 2 μM caffeine in methanol) was added to the first plate before the reaction starts. NADPH regenerating system solution A (6.05 ml, Fisher Scientific, #NC9255727) was combined with NADPH regenerating system solution B (1.21 ml, Fisher Scientific, #NC9016235) in potassium phosphate buffer (15.8 ml, 0.1 M, pH 7.4, 37° C.). The resulting NADPH solution (43.8 μl) was added to each well of all the 96-well assay plates and mixed with pipette briefly making the final protein and compound concentrations respectively: 0.5 mg/ml, 0.08 μM (0.4 μM for controls). Plates were sealed, and all plates except the 0-hr plate were incubated at 37° C., shaken at a speed of 60 rpm. A single assay plate was tested at each time point: 0.5 hr, 1 hr, 2 hr, and 4 hr. At each time point, 437.5 μL of pre-cooled internal standard was added each well of the plate to quench the reaction. […] 120 μl supernatant was transferred to a 96-well plate, centrifuged again and analyzed by UPLC-MS (Waters Inc., Milford, MA). The compounds and internal standard were detected by selected ion recording (SIR).
The amount of material was measured as a ratio of peak area to the internal standard and graphed. Using the slope from the initial linear portion of this curve, the degradation rate constant is calculated using equation [1].

The text below walks through data of patent US11999676B2, “Vesicular monoamine transporter-2 ligands and their use in the treatment of psychostimulant abuse” (priority 2016, dated 2024).

Bounds are passed on as bounds.

Chain of hERG channel (Q12809 whole entry): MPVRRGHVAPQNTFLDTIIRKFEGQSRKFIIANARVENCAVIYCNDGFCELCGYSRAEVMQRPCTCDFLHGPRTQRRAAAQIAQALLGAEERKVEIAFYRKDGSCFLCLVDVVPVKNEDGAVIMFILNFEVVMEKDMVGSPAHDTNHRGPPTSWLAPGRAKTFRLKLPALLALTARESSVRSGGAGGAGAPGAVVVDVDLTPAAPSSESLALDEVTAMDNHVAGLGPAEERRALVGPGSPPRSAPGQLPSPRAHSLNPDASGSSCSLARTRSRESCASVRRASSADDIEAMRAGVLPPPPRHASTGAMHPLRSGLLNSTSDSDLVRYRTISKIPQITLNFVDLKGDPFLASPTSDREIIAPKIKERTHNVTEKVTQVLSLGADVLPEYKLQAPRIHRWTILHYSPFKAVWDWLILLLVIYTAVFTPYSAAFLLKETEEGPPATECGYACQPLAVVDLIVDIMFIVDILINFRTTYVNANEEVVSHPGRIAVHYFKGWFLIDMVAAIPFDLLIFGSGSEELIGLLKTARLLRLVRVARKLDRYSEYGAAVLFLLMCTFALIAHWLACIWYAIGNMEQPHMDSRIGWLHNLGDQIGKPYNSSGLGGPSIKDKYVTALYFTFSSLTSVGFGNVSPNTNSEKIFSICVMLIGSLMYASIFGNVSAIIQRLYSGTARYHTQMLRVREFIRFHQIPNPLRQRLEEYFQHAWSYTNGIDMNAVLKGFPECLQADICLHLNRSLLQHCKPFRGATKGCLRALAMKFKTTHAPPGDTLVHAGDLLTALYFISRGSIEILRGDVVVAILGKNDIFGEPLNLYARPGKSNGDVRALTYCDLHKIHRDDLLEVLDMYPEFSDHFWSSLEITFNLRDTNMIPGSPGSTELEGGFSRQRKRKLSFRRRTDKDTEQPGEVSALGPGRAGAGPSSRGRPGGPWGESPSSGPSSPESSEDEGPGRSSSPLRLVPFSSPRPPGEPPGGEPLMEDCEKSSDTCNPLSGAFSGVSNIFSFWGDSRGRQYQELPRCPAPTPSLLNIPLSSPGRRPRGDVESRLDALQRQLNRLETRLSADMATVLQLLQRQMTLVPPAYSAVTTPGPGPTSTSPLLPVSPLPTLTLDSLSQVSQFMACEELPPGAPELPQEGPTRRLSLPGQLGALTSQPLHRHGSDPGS

`FCC(Cc1ccc(F)cc1)NCCCc1ccc(Cl)cc1` (stereo not drawn) [Compound 150]: on VMAT2, the Ki (as a rule, the dissociation constant of the complex between target and ligand, obtained from inhibition or displacement) turned out to be 39.1 ± 7.97 nM. Besides, the Ki at hERG channel came to 2340 ± 1070 nM. Also, in data set [1], the “Microsomal stability assays: Half-life” value amounted to 6 min and the CLint scaled (in general, the capacity of the preparation to metabolise the compound, expressed as a volume cleared per time) at 0.08 µM was found to be 540 mL/min/kg.

In the case of `CC(Cc1ccc(F)cc1)NCCCc1ccc(Br)cc1` (stereo not drawn) [Compound 145], the Ki on VMAT2 amounted to 22.1 ± 6.5 nM. The Ki at hERG channel was 506 ± 199 nM. Also, in data set [1], the “Microsomal stability assays: Half-life” value came out at 6 min and the CLint scaled at 0.08 µM came to 402 mL/min/kg.

In the case of `CC(Cc1ccc(F)c(F)c1)NCCCc1ccncc1` (stereo not drawn) [Compound 96], the Ki on VMAT2 came to 78.5 ± 15.8 nM. The Ki on hERG channel turned out to be 4070 ± 734 nM. In data set [1], the CLint scaled at 0.08 µM is 96.8 mL/min/kg and the half-life (usually the time in which the quantity being followed falls by half) at 0.08 µM was 30 min.

Take `FCC(Cc1ccccc1)NCCCc1ccc(F)cc1` (stereo not drawn) [Compound 101]: the Ki on VMAT2 was found to be 14.7 ± 9.28 nM. The Ki on hERG channel stood at 4800 ± 940 nM. In data set [1], the CLint scaled at 0.08 µM came to 253 mL/min/kg and the half-life at 0.08 µM was 12 min.

For the compound `CC(Cc1ccccc1)NCCCc1ccc(I)cc1` (stereo not drawn) [Compound 215], on VMAT2, the Ki worked out at 6.86 ± 1.81 nM. Besides, on hERG channel, the Ki came out at 3040 ± 1370 nM. In data set [1], the “Microsomal stability assays: Clearance” value was 148 mL/min/kg and the half-life at 0.08 µM was 18 min.

Turning to `FCC(Cc1ccc(F)cc1)NCCCc1ccc(F)cc1` (stereo not drawn) [Compound 152], the Ki at VMAT2 was 27.3 ± 12.8 nM. For the same compound, the Ki at hERG channel turned out to be 5700 ± 2970 nM. In data set [1], this compound showed a CLint scaled at 0.08 µM of 298 mL/min/kg and a half-life at 0.08 µM of 12 min.

Turning to `CC(Cc1ccc(Br)cc1)NCCCc1ccc(F)cc1` (stereo not drawn) [Compound 200], the Ki amounted to 15.2 ± 8.86 nM at VMAT2 and 242 ± 76 nM on hERG channel. Also, in data set [1], the CLint scaled at 0.08 µM worked out at 186 mL/min/kg. The compound also had a half-life at 0.08 µM in data set [1] of 18 min.

In the case of `CC(Cc1ccc(NC=O)cc1)NCCCc1ccc(F)cc1` (stereo not drawn) [Compound 87], the values for the Ki on VMAT2 and on hERG channel were 12.7 ± 2.85 nM and 738 ± 244 nM, respectively. Besides, in data set [1], the CLint scaled at 0.08 µM was determined as 13.3 mL/min/kg. For the same compound, in data set [1], the half-life at 0.08 µM is 210 min.

In the case of `FCC(Cc1ccccc1)NCCCc1ccccc1` (stereo not drawn) [Compound 98], the Ki turned out to be 27.8 ± 5.29 nM at VMAT2 and 17100 ± 12100 nM on hERG channel. The compound also showed a CLint scaled at 0.08 µM in data set [1] above 400 mL/min/kg. This compound registered a half-life at 0.08 µM in data set [1] below 6 min.

`CC(Cc1ccccc1)NCCCc1ccc(S)cc1` (stereo not drawn) [Compound 216]: the Ki at VMAT2 was 65.4 ± 23.4 nM. For the same compound, the Ki at hERG channel was found to be 4190 ± 1080 nM. In data set [1], this compound had a CLint scaled at 0.08 µM of 170 mL/min/kg and a half-life at 0.08 µM of 18 min.

As to `CC(Cc1ccccc1)NCCCc1ccc(I)cc1` (stereo not drawn) [Compound 212], the Ki came to 22.2 ± 2.21 nM on VMAT2 and 642 ± 168 nM on hERG channel. In addition, the “Microsomal stability assays: Clearance” value in data set [1] amounted to 439 mL/min/kg. In addition, the “Microsomal stability assays: Half-life” value in data set [1] is 6 min.

For the compound `CC(Cc1ccc(F)cc1)NCCCc1ccc(I)cc1` (stereo not drawn) [Compound 182], the results for the Ki on VMAT2 and on hERG channel were 52.7 ± 6.35 nM and 512 ± 126 nM, respectively. For the same compound, in data set [1], the “Microsomal stability assays: Half-life” value was found to be 6 min. In data set [1], the CLint scaled at 0.08 µM was found to be 375 mL/min/kg.

For `CC(Cc1ccc(Br)cc1)NCCCc1ccc(Cl)cc1` (stereo not drawn) [Compound 184], at VMAT2, the Ki was found to be 9.06 ± 1.61 nM. Moreover, on hERG channel, the inhibitory constant (Ki) was found to be 196 ± 30.5 nM. In data set [1], the “Microsomal stability assays: Half-life” value was 6 min and the CLint scaled at 0.08 µM was found to be 452 mL/min/kg.

Take `CC(Cc1ccc(NC=O)cc1)NCCCc1ccc(F)cc1` (stereo not drawn) [Compound 90]: the results for the Ki at VMAT2 and at hERG channel were 12.7 ± 2.85 nM and 738 ± 244 nM, respectively. Besides, the “Microsomal stability assays: Clearance” value in data set [1] was 24.9 mL/min/kg. Besides, in data set [1], the “Microsomal stability assays: Half-life” value turned out to be 114 min.

For `CCOC(=O)c1ccc(CCCNC(C)Cc2ccc(F)cc2)cc1` (stereo not drawn) [Compound 158], the Ki on VMAT2 was found to be 42.8 ± 8.89 nM. Also, the Ki at hERG channel turned out to be 1410 ± 275 nM. In data set [1], this compound gave a CLint scaled at 0.08 µM of 120 mL/min/kg and a half-life at 0.08 µM of 24 min.

As for `CC(Cc1ccc([N+](=O)[O-])cc1)NCCCc1ccc(F)cc1` (stereo not drawn) [Compound 119], the Ki at VMAT2 was determined as 9.85 ± 1.62 nM. Also, at hERG channel, the Ki was 130 ± 25.6 nM. Besides, in data set [1], the “Microsomal stability assays: Clearance” value turned out to be 112 mL/min/kg and the “Microsomal stability assays: Half-life” value was found to be 24 min.

Take `CC(Cc1ccc(Br)cc1)NCCCc1ccncc1` (stereo not drawn) [Compound 174]: the Ki on VMAT2 worked out at 52.1 ± 35.9 nM. The Ki at hERG channel is 880 ± 251 nM. In addition, in data set [1], the CLint scaled at 0.08 µM amounted to 126 mL/min/kg and the half-life at 0.08 µM is 24 min.

In the case of `CCC(Cc1ccccc1)NCCCc1ccc(O)cc1` (stereo not drawn) [Compound 207], the Ki on VMAT2 came to 37.8 ± 6.59 nM. For the same compound, at hERG channel, the Ki is 2380 ± 517 nM. In data set [1], this compound gave a CLint scaled at 0.08 µM above 400 mL/min/kg and a half-life at 0.08 µM below 6 min.

In the case of `CC(Cc1ccc(F)c(F)c1)NCCCc1ccc(N)cc1` (stereo not drawn) [Compound 60], the Ki on VMAT2 came to 48.3 ± 16.4 nM. The Ki on hERG channel is 3140 ± 1550 nM. In data set [1], the CLint scaled at 0.08 µM is 30.7 mL/min/kg and the half-life at 0.08 µM was 60 min.

In the case of `CC(Cc1ccc(C(F)(F)F)cc1)NCCCc1ccncc1` (stereo not drawn) [Compound 164], the Ki at VMAT2 came to 53.3 ± 6.5 nM; on hERG channel it was 1890 ± 639 nM. This compound displayed a CLint scaled at 0.08 µM in data set [1] of 83.3 mL/min/kg. Further, the half-life at 0.08 µM in data set [1] was 36 min.

On to `CC(Cc1ccc(F)cc1)NCCCc1c[nH]c2ccccc12` (stereo not drawn) [Compound 91], for which the Ki at VMAT2 amounted to 36.5 ± 5.56 nM; on hERG channel, 2200 ± 124 nM. This compound registered a CLint scaled at 0.08 µM in data set [1] above 400 mL/min/kg. In data set [1], this compound gave a half-life at 0.08 µM below 6 min.

Take `FCC(Cc1ccc(Br)cc1)NCCCc1ccc(F)cc1` (stereo not drawn) [Compound 85]: the Ki at VMAT2 came out at 35.7 ± 7.32 nM. Also, the Ki at hERG channel was found to be 1130 ± 711 nM. In addition, in data set [1], the “Microsomal stability assays: Half-life” value was 6 min and the CLint scaled at 0.08 µM is 335 mL/min/kg.

In the case of `CC(Cc1ccc(-c2cncnc2)cc1)NCCCc1ccc(F)cc1` (stereo not drawn) [Compound 196], the inhibition constant Ki on VMAT2 turned out to be 7.12 ± 1.59 nM; on hERG channel, 402 ± 72.2 nM. The compound further displayed a CLint scaled at 0.08 µM in data set [1] of 14.7 mL/min/kg. In data set [1], the half-life at 0.08 µM was 192 min.

With `CC(Cc1ccc(N)cc1)NCCCc1ccc(F)cc1` (stereo not drawn) [Compound 111], the figures for the Ki at VMAT2 and on hERG channel were 16.7 ± 3.34 nM and 2500 ± 435 nM, respectively. Moreover, in data set [1], the “Microsomal stability assays: Clearance” value stood at 19.5 mL/min/kg. The “Microsomal stability assays: Half-life” value in data set [1] was 144 min.

For `CC(Cc1ccccc1)NCCCc1ccc(C(F)(F)F)cc1` (stereo not drawn) [Compound 194], the Ki at VMAT2 came to 27.7 ± 7.81 nM. Moreover, the Ki on hERG channel was 791 ± 270 nM. In data set [1], this compound showed a CLint scaled at 0.08 µM of 138 mL/min/kg and a half-life at 0.08 µM of 18 min.

Take `CC(Cc1ccc(N)cc1)NCCCc1ccc(F)cc1` (stereo not drawn) [Compound 110]: the results for the Ki on VMAT2 and on hERG channel were 19.2 ± 4.43 nM and 2590 ± 792 nM, respectively. In addition, the CLint scaled at 0.08 µM in data set [1] is below 10 mL/min/kg. The half-life at 0.08 µM in data set [1] is above 240 min.

Turning to `CC(Cc1ccc(F)cc1)NCCCc1ccc2[nH]ccc2c1` (stereo not drawn) [Compound 55], the Ki on VMAT2 came to 27.4 ± 8.93 nM. Besides, the Ki on hERG channel was found to be 1550 ± 630 nM. In data set [1], this compound yielded a CLint scaled at 0.08 µM above 400 mL/min/kg and a half-life at 0.08 µM below 6 min.

Turning to `CC(Cc1ccc(Br)cc1)NCCCc1ccc(I)cc1` (stereo not drawn) [Compound 180], on VMAT2, the inhibition constant Ki came to 48.4 ± 19.4 nM. For the same compound, on hERG channel, the Ki was determined as 601 ± 195 nM. In data set [1], this compound had a CLint scaled at 0.08 µM of 290 mL/min/kg and a half-life at 0.08 µM of 12 min.

For `CC(Cc1ccccc1)NCCCc1ccc([N+](=O)[O-])cc1` (stereo not drawn) [Compound 222], the inhibitory constant (Ki) on VMAT2 came out at 4.97 ± 3.08 nM. In addition, the inhibitory constant (Ki) at hERG channel came to 96.1 ± 28.3 nM. Also, in data set [1], the CLint scaled at 0.08 µM was above 400 mL/min/kg and the half-life at 0.08 µM was below 6 min.

As to `CC(Cc1ccc(F)cc1)NCCCc1ccc([N+](=O)[O-])cc1` (stereo not drawn) [Compound 160], the Ki at VMAT2 was 14.3 ± 2.2 nM. The Ki at hERG channel turned out to be 67.1 ± 14.7 nM. Moreover, in data set [1], the CLint scaled at 0.08 µM came out at 119 mL/min/kg and the half-life at 0.08 µM was 24 min.
